Key:
[1] = target: T1, HP1α (Homo sapiens, UniProt P45973); experiment: In vitro droplet assay, small molecule partitioning into HP1α condensates; assay type: binding
T1 construct: HP1α—full length, amino acids 1-191; 6xHis (N); made in house; host or cells: LOBSTR cells (E. coli)
Experimental: (§1) Recombinant BFP, GFP, or mCherry fusion proteins were concentrated and desalted to an appropriate protein concentration and 125 mM NaCl using Amicon Ultra centrifugal filters (30K MWCO, Millipore). Recombinant protein was added too. […] The protein solution was immediately loaded onto glass bottom 384 well plate (Cellvis P384-1.5H-N) and imaged with an Andor confocal microscope with a 150× objective. Unless indicated, images presented are of droplets settled on the glass coverslip.
Drug and small molecule concentrations used in the droplet experiments are as follows:
To analyze in vitro droplet experiments, custom Python scripts using the scikit-image package were written to identify droplets and characterize their size, shape and intensity. […] After segmentation, mean intensity for each droplet was calculated while excluding pixels near the phase interface, and background-corrected by subtracting intensity of dark images of droplet formation buffer only. Droplets identified in the channel of the fluorescent protein from ten independent fields of view were quantified for each experiment. The maximum intensity of signal within the droplets was calculated for each channel, the maximum intensity in the drug channel was termed “maximum drug intensity”. […]

[2] = target: T2, MED1 droplets (Homo sapiens, UniProt Q15648); experiment: In vitro droplet drug chase out experiment; assay type: binding; conditions: 5 μM cisplatin-TR, 10 μM MED1, unlabeled compound 10, 100 or 500 μM
T2 construct: MED1—amino acids 600-1581; 6xHis (N); made in house; host or cells: LOBSTR cells (E. coli)
T2 sequence (Q15648 600-1581): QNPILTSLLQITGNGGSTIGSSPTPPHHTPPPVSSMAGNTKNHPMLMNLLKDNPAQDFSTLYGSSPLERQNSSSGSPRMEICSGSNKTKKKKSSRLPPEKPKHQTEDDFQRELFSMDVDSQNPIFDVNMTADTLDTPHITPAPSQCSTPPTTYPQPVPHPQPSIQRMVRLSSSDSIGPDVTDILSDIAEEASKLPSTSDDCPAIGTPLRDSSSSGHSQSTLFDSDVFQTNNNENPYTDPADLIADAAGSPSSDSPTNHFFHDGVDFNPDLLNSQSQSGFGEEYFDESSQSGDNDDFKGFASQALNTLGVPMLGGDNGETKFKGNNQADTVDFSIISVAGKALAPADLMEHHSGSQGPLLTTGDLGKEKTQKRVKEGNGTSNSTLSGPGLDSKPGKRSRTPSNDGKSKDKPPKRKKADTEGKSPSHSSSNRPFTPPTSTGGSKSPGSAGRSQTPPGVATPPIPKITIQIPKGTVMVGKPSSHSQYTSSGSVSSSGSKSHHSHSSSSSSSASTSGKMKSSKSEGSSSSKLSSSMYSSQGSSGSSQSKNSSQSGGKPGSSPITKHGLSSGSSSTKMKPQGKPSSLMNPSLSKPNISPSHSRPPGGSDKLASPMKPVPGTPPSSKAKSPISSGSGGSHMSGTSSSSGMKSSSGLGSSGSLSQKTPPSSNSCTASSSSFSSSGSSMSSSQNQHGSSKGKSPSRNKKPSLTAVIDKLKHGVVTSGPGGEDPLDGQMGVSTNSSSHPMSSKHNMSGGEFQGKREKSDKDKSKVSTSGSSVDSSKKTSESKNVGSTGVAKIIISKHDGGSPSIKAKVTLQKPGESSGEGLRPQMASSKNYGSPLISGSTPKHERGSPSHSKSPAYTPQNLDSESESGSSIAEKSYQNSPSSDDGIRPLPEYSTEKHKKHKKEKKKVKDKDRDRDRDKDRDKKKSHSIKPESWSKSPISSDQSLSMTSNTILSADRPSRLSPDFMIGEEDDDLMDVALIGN
Experimental: For chase-out experiments 5 μM labeled cisplatin-TR was added to a MED1 droplets reaction (10 μM MED1, 50 mM Tris-HCl pH 7.5, 10% glycerol, 1 mM DTT, 10% PEG) in order to form MED1 droplets concentrated with Cisplatin-TR. Unlabeled transplatin or unlabeled cisplatin (vehicle, 10 μM, 100 μM, or 500 μM) were added to the droplet mixture and the amount of labeled cisplatin-TR remaining in the droplet is measured after chase out. 100 μM fluorescent FLTX1 was added to a MED1 droplets reaction (10 μM MED1, 50 mM Tris-HCl pH 7.5, 10% glycerol, 1 mM DTT, 10% PEG) in order to form MED1 droplets concentrated with FLTX1.

[3] = Droplet formation assay of small molecule alone without any protein; assay type: physicochemical; conditions: without any protein added
Experimental: as §1, with “Recombinant protein was added too.” left out

[4] = target: T3, MED1 condensates (Homo sapiens, UniProt Q15648); experiment: FRAP of in vitro droplets with drug; assay type: binding; conditions: 5 μM TR-cisplatin, 10 μM protein, 125 mM NaCl, 10% PEG
T3 construct: MED1—amino acids 600-1581; 6xHis (N); made in house; host or cells: LOBSTR cells (E. coli)
T3 sequence (Q15648 600-1581): as above
Experimental: For FRAP of in vitro droplets, 5 pulses of laser at a 50 us dwell time was applied to the MED1 channel and 20 pulses of laser at a 100 μs dwell time was applied to the Cisplatin channel. Recovery was imaged on an Andor microscope every 1 s for the indicated time periods. Fluorescence intensity was measured using FIJI. Post bleach FRAP recovery data was averaged over 6 replicates for each channel.

[5] = system: super-enhancers in Hela cells; conditions: cisplatin treated Hela cells, published data (41); cited from earlier work

T1 sequence (P45973 whole entry, the tested form may be a part): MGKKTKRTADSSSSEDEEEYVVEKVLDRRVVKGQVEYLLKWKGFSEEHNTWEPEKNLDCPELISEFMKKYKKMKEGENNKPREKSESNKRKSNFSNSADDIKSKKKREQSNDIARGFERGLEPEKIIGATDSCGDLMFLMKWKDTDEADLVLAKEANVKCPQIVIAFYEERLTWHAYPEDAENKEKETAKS

With `N.N.[Cl][Pt][Cl]` [cisplatin] the “partitioning / incorporation into HP1α droplets” value [1] was “freely diffuses”, the “chase out of cisplatin-TR from MED1 droplets by unlabeled compound” value ([2]; listed as unlabeled cisplatin) was “able to chase out cisplatin-TR” and the “chase out of cisplatin-TR from MED1 droplets by unlabeled compound” value ([2]; listed as unmodified cisplatin) was “could be chased out of the condensate”. The “droplet formation of small molecule alone” value [3] was “diffuse fluorescent signal”, the “mobility in MED1 droplets (FRAP)” value [4] was “highly mobile” and the “location of cisplatin-modified DNA (platinated-DNA pull-down sequencing)” value [5] was “preferentially occurs at super-enhancers”.
